According to ChEMBL document CHEMBL5303766, “Data for DCP probe FHT-2344” (2022):
Activity calls are given as the source filed them. No cut-off for these calls is given here.

What was measured:
[1] = target: Sodium-dependent dopamine transporter (Homo sapiens, UniProt Q01959); experiment: GPCRScan assay: inhibition of DAT; parameters: radioligand conc. used [nm] 3.6 – 16.0, parental cells stable HEK
[2] = target: SWI/SNF-related matrix-associated actin-dependent regulator of chromatin subfamily A member 2 (Homo sapiens, UniProt P51531); experiment: Measurement of the ATPase catalytic activity using the ADP-Glo detection (SMARCA2); format: functional
[3] = target: Tyrosine-protein kinase ABL1 (Homo sapiens) (UniProt P00519); experiment: ABL1 SGC Tm panel (DSF); conditions: for ΔTm: Compound concentration 10.0 uM
[4] = target: Calcium/calmodulin-dependent protein kinase type II subunit delta (Homo sapiens) (UniProt Q13557); experiment: CAMK2D SGC Tm panel (DSF); conditions: for ΔTm: Compound concentration 10.0 uM
[5] = target: Dual specificity protein kinase CLK3 (Homo sapiens) (UniProt P49761); experiment: CLK3 SGC Tm panel (DSF); conditions: for ΔTm: Compound concentration 10.0 uM
Chain of Dual specificity protein kinase CLK3 (Homo sapiens) (P49761 whole entry, looked up): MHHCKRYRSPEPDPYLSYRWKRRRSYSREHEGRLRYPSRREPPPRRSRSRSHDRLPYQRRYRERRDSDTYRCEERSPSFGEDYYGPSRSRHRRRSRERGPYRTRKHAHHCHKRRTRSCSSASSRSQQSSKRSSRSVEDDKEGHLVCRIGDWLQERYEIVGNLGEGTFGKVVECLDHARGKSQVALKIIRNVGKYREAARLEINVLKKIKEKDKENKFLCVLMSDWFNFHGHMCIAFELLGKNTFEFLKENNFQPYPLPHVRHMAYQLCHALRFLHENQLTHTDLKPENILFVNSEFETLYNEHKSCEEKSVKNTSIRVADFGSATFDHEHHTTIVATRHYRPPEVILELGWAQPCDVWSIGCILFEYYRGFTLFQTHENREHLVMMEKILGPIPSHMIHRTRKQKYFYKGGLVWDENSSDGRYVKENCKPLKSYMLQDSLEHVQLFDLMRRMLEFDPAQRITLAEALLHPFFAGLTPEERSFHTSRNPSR

[6] = target: T1, Dual specificity tyrosine-phosphorylation-regulated kinase 2 (Homo sapiens) (UniProt Q92630); experiment: DYRK2 SGC Tm panel (DSF); conditions: for ΔTm: Compound concentration 10.0 uM
T1 sequence (whole entry): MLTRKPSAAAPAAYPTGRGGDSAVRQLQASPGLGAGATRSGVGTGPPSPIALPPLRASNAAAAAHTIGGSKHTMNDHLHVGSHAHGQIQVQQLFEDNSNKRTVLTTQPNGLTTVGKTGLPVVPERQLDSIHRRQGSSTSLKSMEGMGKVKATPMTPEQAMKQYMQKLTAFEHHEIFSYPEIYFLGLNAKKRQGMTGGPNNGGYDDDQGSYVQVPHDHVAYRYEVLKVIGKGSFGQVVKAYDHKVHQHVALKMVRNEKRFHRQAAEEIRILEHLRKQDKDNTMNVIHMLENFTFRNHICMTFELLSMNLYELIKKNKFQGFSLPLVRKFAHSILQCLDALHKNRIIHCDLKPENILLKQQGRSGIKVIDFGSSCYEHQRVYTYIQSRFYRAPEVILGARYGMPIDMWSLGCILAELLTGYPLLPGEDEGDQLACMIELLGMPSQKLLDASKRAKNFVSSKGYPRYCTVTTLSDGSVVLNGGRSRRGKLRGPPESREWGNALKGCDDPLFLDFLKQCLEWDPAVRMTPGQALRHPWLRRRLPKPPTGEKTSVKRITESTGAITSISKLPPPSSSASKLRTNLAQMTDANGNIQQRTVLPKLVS

[7] = target: T2, MAP/microtubule affinity-regulating kinase 4 (Homo sapiens) (UniProt Q96L34); experiment: MARK4 SGC Tm panel (DSF); conditions: for ΔTm: Compound concentration 10.0 uM
T2 sequence (whole entry): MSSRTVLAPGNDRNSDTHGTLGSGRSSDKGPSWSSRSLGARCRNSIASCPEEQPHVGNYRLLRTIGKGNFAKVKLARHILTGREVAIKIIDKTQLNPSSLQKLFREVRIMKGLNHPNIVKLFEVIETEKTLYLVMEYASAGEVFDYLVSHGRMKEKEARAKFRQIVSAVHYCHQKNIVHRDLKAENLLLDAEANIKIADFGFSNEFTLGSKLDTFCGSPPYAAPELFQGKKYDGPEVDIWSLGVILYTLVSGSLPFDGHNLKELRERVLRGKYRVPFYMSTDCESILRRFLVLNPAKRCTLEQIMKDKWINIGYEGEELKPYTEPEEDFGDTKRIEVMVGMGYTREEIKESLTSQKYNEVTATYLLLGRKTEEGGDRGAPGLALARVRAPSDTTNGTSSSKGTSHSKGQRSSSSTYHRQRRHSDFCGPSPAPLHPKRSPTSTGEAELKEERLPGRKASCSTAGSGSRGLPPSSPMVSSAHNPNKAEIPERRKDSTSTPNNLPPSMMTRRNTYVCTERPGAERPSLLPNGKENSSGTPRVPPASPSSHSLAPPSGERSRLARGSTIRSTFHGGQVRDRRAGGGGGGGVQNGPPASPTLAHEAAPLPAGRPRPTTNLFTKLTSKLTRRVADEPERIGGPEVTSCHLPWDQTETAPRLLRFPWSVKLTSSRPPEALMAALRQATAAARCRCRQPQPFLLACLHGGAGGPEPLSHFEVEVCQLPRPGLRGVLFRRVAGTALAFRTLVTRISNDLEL

[8] = target: Serine/threonine-protein kinase PAK 4 (Homo sapiens) (UniProt O96013); experiment: PAK4 SGC Tm panel (DSF); conditions: for ΔTm: Compound concentration 10.0 uM
Chain of Serine/threonine-protein kinase PAK 4 (Homo sapiens) (O96013 whole entry, looked up): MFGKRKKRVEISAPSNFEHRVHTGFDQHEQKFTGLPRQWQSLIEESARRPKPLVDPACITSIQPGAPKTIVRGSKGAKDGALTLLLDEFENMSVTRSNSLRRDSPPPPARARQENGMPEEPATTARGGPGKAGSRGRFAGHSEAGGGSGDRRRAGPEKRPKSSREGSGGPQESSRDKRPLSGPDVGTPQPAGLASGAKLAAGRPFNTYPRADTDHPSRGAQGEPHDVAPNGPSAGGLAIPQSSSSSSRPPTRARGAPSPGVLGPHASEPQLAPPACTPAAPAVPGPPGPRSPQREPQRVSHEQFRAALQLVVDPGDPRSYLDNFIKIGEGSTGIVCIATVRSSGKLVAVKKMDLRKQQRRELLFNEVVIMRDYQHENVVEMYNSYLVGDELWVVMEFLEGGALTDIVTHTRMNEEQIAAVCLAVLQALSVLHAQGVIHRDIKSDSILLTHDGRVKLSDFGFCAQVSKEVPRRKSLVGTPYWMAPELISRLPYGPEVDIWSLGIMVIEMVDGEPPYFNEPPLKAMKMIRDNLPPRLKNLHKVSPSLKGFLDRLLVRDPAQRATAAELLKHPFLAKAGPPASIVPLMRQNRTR

[9] = target: Ribosomal protein S6 kinase alpha-1 (Homo sapiens) (UniProt Q15418); experiment: RPS6KA1 SGC Tm panel (DSF); conditions: for ΔTm: Compound concentration 10.0 uM
Chain of Ribosomal protein S6 kinase alpha-1 (Homo sapiens) (Q15418 whole entry): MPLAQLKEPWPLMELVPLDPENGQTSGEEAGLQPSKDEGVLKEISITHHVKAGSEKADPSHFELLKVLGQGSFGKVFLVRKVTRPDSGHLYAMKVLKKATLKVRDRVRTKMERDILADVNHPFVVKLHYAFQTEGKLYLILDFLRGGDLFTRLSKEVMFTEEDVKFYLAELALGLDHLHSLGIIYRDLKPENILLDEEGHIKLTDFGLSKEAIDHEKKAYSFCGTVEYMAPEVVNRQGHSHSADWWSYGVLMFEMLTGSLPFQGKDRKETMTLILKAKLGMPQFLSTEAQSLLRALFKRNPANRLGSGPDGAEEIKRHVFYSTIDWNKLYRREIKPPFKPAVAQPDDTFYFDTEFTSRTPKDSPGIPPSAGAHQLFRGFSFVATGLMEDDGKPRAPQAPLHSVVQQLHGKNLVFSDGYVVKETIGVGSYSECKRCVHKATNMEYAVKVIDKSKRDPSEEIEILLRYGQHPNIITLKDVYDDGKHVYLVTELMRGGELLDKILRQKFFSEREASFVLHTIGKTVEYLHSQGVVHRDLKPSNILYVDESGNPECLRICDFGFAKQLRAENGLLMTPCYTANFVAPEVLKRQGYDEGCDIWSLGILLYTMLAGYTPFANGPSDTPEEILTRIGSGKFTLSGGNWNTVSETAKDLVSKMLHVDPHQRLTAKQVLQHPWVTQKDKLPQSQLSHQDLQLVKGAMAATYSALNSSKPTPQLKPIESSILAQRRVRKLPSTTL

[10] = target: BMP-2-inducible protein kinase (Homo sapiens) (UniProt Q9NSY1); experiment: BMP2K SGC Tm panel (DSF); conditions: for ΔTm: Compound concentration 10.0 uM
Chain of BMP-2-inducible protein kinase (Homo sapiens) (Q9NSY1 whole entry, looked up): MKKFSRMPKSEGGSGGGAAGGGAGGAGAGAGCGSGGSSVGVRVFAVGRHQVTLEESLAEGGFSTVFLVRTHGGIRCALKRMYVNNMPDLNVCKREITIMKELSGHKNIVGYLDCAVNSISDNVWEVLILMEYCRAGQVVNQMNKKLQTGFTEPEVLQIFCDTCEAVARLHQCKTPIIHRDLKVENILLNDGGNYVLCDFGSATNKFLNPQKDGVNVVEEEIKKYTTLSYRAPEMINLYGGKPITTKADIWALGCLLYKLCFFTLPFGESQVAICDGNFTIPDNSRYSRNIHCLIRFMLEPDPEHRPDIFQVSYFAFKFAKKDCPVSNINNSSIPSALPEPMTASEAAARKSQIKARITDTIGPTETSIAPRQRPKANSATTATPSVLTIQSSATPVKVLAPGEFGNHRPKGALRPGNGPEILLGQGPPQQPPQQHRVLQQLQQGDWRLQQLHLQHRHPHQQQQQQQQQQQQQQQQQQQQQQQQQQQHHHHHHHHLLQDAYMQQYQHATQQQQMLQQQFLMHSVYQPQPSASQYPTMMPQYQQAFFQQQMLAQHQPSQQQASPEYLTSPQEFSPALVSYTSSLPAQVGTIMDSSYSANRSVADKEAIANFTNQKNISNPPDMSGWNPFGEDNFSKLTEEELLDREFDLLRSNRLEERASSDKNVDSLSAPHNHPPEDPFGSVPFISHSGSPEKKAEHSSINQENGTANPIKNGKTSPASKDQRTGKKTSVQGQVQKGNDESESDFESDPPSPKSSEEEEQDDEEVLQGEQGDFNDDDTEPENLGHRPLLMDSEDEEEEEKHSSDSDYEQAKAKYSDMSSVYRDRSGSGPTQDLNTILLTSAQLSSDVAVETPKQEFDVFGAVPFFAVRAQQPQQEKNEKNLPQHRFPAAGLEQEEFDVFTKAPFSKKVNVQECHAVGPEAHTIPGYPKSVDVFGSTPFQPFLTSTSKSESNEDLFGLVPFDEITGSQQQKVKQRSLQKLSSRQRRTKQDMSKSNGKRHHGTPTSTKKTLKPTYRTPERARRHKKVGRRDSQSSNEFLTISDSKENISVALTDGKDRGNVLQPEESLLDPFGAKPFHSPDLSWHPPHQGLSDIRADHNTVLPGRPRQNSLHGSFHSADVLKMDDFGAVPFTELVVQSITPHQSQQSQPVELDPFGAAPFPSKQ

[11] = target: Ribosomal protein S6 kinase alpha-5 (Homo sapiens) (UniProt O75582); experiment: RPS6KA5 SGC Tm panel (DSF); conditions: for ΔTm: Compound concentration 10.0 uM
Chain of Ribosomal protein S6 kinase alpha-5 (Homo sapiens) (O75582 whole entry, looked up): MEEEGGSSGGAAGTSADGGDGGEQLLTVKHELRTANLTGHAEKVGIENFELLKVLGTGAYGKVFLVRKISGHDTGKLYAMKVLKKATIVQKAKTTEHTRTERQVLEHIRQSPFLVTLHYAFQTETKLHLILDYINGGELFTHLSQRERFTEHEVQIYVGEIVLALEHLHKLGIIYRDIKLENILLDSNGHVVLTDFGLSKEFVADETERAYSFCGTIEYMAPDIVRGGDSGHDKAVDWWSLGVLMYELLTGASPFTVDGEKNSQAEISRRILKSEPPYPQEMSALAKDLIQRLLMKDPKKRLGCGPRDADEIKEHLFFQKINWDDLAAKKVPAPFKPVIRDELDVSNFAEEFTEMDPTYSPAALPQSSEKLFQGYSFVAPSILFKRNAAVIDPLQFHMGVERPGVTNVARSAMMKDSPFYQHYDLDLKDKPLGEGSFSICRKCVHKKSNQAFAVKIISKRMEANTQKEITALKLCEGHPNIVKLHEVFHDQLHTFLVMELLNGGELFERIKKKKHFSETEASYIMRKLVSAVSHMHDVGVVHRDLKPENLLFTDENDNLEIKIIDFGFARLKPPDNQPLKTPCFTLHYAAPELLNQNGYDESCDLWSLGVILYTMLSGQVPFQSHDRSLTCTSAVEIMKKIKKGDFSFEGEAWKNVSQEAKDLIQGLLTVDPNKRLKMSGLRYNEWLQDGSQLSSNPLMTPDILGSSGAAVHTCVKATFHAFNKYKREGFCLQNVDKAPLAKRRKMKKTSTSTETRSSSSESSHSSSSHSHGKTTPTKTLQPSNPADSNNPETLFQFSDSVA

[12] = target: Proto-oncogene tyrosine-protein kinase Src (Homo sapiens) (UniProt P12931); experiment: SRC SGC Tm panel (DSF); conditions: for ΔTm: Compound concentration 10.0 uM
Chain of Proto-oncogene tyrosine-protein kinase Src (Homo sapiens) (P12931 2-536 limits assumed): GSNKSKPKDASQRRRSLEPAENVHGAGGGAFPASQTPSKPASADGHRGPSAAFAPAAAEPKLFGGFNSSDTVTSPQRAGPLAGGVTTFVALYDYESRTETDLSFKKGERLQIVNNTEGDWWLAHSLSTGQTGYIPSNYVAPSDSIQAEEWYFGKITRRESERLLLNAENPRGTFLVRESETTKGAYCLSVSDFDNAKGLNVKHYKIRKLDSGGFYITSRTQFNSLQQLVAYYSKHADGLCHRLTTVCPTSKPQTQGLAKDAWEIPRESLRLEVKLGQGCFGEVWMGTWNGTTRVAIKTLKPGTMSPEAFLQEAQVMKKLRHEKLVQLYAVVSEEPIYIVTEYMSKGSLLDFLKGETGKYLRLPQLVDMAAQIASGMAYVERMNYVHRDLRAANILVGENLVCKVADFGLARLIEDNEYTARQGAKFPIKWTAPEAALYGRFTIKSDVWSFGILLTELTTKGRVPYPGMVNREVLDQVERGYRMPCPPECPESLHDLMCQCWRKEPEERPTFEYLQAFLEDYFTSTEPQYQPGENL

[13] = target: STE20/SPS1-related proline-alanine-rich protein kinase (Homo sapiens) (UniProt Q9UEW8); experiment: STK39 SGC Tm panel (DSF); conditions: for ΔTm: Compound concentration 10.0 uM
[14] = target: T3, Serine/threonine-protein kinase VRK1 (Homo sapiens) (UniProt Q99986); experiment: VRK1 SGC Tm panel (DSF); conditions: for ΔTm: Compound concentration 10.0 uM
T3 sequence (whole entry): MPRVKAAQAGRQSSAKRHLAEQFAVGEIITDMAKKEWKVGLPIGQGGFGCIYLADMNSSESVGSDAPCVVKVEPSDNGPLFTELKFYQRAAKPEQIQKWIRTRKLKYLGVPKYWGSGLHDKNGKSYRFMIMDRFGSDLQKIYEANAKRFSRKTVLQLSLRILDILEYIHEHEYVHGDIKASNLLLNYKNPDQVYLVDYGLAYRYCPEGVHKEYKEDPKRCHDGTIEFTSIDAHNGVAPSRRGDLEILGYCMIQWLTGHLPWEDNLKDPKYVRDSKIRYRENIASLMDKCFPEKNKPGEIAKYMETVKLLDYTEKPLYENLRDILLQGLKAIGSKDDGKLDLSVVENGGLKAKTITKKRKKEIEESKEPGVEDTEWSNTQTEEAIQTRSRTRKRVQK

[15] = target: 5-hydroxytryptamine receptor 5A (Homo sapiens) (UniProt P47898); conditions: Compound concentration 10.0 uM
[16] = target: D(3) dopamine receptor (Homo sapiens) (UniProt P35462); conditions: Compound concentration 10.0 uM
[17] = target: GABA-A receptor; anion channel (Rattus norvegicus) (UniProt O09028+P15431+P18506+P18508+P19969+P20236+P23574+P23576+P28471+P28473+P30191+P62813+P63079+P63138+Q91ZM7+Q9ES14); conditions: Compound concentration 10.0 uM

Chain of Sodium-dependent dopamine transporter (Q01959 whole entry): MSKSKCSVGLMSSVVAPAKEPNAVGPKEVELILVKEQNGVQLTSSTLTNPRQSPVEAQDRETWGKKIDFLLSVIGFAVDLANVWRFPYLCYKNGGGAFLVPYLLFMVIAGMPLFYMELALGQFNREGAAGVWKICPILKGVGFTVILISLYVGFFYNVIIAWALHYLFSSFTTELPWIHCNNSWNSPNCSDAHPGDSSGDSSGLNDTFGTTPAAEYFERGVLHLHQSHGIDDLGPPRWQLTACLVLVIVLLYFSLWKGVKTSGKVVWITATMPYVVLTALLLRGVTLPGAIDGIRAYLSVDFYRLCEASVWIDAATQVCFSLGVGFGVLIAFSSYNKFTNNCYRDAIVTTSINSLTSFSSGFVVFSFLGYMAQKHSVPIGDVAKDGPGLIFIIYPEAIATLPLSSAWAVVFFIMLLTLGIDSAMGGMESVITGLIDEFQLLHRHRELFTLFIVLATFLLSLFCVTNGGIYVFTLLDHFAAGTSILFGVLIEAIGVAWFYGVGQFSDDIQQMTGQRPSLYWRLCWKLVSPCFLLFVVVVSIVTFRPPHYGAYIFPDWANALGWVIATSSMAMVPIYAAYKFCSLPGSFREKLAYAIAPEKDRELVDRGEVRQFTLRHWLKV

| SMILES | Ki [1] [µM] | pKi [1] | IC50 [2] | delta Tm Staurosporine positive control [3] | ΔTm [3] | delta Tm Staurosporine positive control [4] | ΔTm [4] | delta Tm Staurosporine positive control [5] | ΔTm [5] | delta Tm Staurosporine positive control [6] | ΔTm [6] | delta Tm Staurosporine positive control [7] | ΔTm [7] | delta Tm Staurosporine positive control [8] | ΔTm [8] | delta Tm Staurosporine positive control [9] | ΔTm [9] | delta Tm Staurosporine positive control [10] | ΔTm [10] | delta Tm Staurosporine positive control [11] | further results |
| --- | --- | --- | --- | --- | --- | --- | --- | --- | --- | --- | --- | --- | --- | --- | --- | --- | --- | --- | --- | --- | --- |
| COC[C@H](NC(=O)c1ccn(S(C)(=O)=O)c1)C(=O)Nc1nc(-c2cccc(-c3ccn(C)n3)c2)cs1 | > 10 | < 5 | 0.0138 µM (active) | 8.26 | 0.39 | 16 | 0.157 | 4.89 | -0.362 | 6.46 | 1.45 | 15.8 | 0.492 | 13.4 | -0.0385 | 3.76 | 0.166 | 18.7 | 0.214 | 13.1 | ΔTm [11]: 1.16; delta Tm Staurosporine positive control [12]: 5.5; ΔTm [12]: -0.156; delta Tm Staurosporine positive control [13]: 8.57; ΔTm [13]: 0.181; delta Tm Staurosporine positive control [14]: 3.19; ΔTm [14]: 0.303; inhibition [15]: 11.2%; inhibition [16]: 13%; inhibition [17]: 16% |
| C[C@H](NC(=O)c1cn(C2(C#N)CC2)cn1)C(=O)Nc1nc(-c2cccc(-c3ccn(C)n3)c2)cs1 | > 10 | < 5 | 1.88 µM (not active) | 8.26 | 0.15 | 16 | 0.121 | 4.89 | -0.347 | 6.46 | 1.82 | 15.8 | 0.462 | 13.4 | -0.0631 | 3.76 | 0.223 | 18.7 | 0.335 | 13.1 | ΔTm [11]: -0.0945; delta Tm Staurosporine positive control [12]: 5.5; ΔTm [12]: 0.346; delta Tm Staurosporine positive control [13]: 8.57; ΔTm [13]: 0.258; delta Tm Staurosporine positive control [14]: 3.19; ΔTm [14]: 0.296; inhibition [15]: 13.9%; inhibition [16]: 28.2%; inhibition [17]: 31.5% |
